Laboratory results as given in article PMC11396129, “Oxindole–benzothiazole hybrids as CDK2 inhibitors and anticancer agents: design, synthesis and biological evaluation” (BMC Chemistry, 2024).

Legend:
Format in all cases: cell-based, human
[1] = test system: NCI 60 cancer cell line panel; experiment: NCI 60 panel growth inhibition (SRB), whole panel; details: mean over NCI 60 panel, 10 μM
Procedure: (§1) Screening of cytotoxic activity against a panel of sixty human tumor cell lines The selected compounds by NCI were evaluated for their anticancer activity in a two- stage process. […] Then, the output from the single dose screen is reported as a mean graph. […] Assay protocol. […] For a typical screening experiment, cells are inoculated into 96 well microtiter plates in 100 µL at plating densities ranging from 5000 to 40,000 cells/well depending on the doubling time of individual cell lines. […] After 24 h, two plates of each cell line are fixed in situ with TCA, to represent a measurement of the cell population for each cell line at the time of drug addition (Tz). The experimental drugs are solubilized in dimethyl sulfoxide at 400-fold the desired final maximum test concentration and stored frozen prior to use. At the time of drug addition, an aliquot of frozen concentrate is thawed and diluted to twice the desired final maximum test concentration with complete medium containing 50 µg/mL gentamicin. Additional four, 10-fold or ½ log serial dilutions are made to provide a total of five drug concentrations plus control. […] For adherent cells, the assay is terminated by the addition of cold TCA. […] The supernatant is discarded, and the plates are washed five times with tap water and air dried. […] Using the seven absorbance measurements [time zero, (Tz), control growth, (C), and test growth in the presence of drug at the five concentration levels (Ti)], the percentage growth is calculated at each of the drug concentrations levels. Percentage growth inhibition is calculated as: [(Ti Tz)/(C–Tz)] x 100 for concentrations for which Ti>/=Tz and [(Ti-Tz)/Tz] x 100 for concentrations for which Ti < Tz. Three dose response parameters are calculated for each experimental agent. […] The drug concentration resulting in total growth inhibition (TGI) is calculated from Ti = Tz. […] Values are calculated for each of these three parameters if the level of activity is reached; however, if the effect is not reached or is exceeded, the value for that parameter is expressed as greater or less than the maximum or minimum concentration tested.

[2] = test system: OVCAR-5; experiment: NCI 60 panel growth inhibition (SRB), ovarian cancer; details: OVCAR-5, 10 μM
Procedure: as §1

[3] = test system: NCI/ADR-RES; experiment: as above; details: 10 μM
Procedure: as §1

[4] = test system: IGROV1; experiment: as above; details: IGROV1, 10 μM
Procedure: as §1

[5] = test system: OVCAR-3; experiment: as above; details: OVCAR-3, 10 μM
Procedure: as §1

[6] = test system: SK-OV-3; experiment: as above; details: SK-OV-3, 10 μM
Procedure: as §1

[7] = test system: OVCAR-8; experiment: as above; details: OVCAR-8, 10 μM
Procedure: as §1

[8] = test system: OVCAR-4; experiment: as above; details: OVCAR-4, 10 μM
Procedure: as §1

[9] = test system: PC-3; experiment: NCI 60 panel growth inhibition (SRB), prostate cancer; details: PC-3, 10 μM
Procedure: as §1

[10] = test system: DU-145; experiment: as above; details: DU-145, 10 μM
Procedure: as §1

[11] = test system: MDA-MB-435; experiment: NCI 60 panel growth inhibition (SRB), melanoma; details: MDA-MB-435, 10 μM
Summary of the method: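 Two-stage NCI process: single-dose screen, then five-concentration testing of selected compounds. Growth relative to time-zero and untreated controls was derived from SRB absorbance, and TGI from the concentration giving Ti = Tz.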

[12] = test system: SN12C; experiment: NCI 60 panel growth inhibition (SRB), renal cancer; details: 10 μM
Procedure: as §1

[13] = test system: CAKI-1; experiment: NCI 60 panel growth inhibition (SRB), renal cancer; details: CAKI-1, 10 μM
Procedure: as §1

[14] = test system: TK-10; experiment: NCI 60 panel growth inhibition (SRB), renal cancer; details: TK-10, 10 μM
Procedure: as §1

[15] = test system: 786-0; experiment: NCI 60 panel growth inhibition (SRB), renal cancer; details: 786-0, 10 μM
Procedure: as §1

[16] = test system: ACHN; experiment: NCI 60 panel growth inhibition (SRB), renal cancer; details: 10 μM
Procedure: as §1

[17] = test system: RXF 393; experiment: NCI 60 panel growth inhibition (SRB), renal cancer; details: RXF 393, 10 μM
Procedure: as §1

[18] = test system: UO-31; experiment: NCI 60 panel growth inhibition (SRB), renal cancer; details: UO-31, 10 μM
Procedure: as §1

[19] = test system: A498; experiment: NCI 60 panel growth inhibition (SRB), renal cancer; details: A498, 10 μM
Procedure: as §1

[20] = test system: MCF7; experiment: NCI 60 panel growth inhibition (SRB), breast cancer; details: MCF7, 10 μM
Procedure: as §1

[21] = test system: HS 578T; experiment: as above; details: 10 μM
Procedure: as §1

[22] = test system: MDA-MB-231/ATCC; experiment: as above; details: 10 μM
Procedure: as §1

[23] = test system: T-47D; experiment: as above; details: 10 μM
Procedure: as §1

[24] = test system: BT-549; experiment: as above; details: BT-549, 10 μM
Procedure: as §1

[25] = test system: MDA-MB-468; experiment: as above; details: MDA-MB-468, 10 μM
Procedure: as §1

Row | Compound | GI% [2] | GI% [3] | GI% [4] | GI% [5] | GI% [6] | GI% [7] | GI% [8] | GI% [9] | GI% [10] | GI% [11] | GI% [12] | GI% [13] | GI% [14] | GI% [15] | GI% [16] | GI% [17] | GI% [18] | GI% [19] | GI% [20] | GI% [21] | other results
1 | COc1cccc(-c2nc3ccccc3s2)c1OCC(=O)NN=C1C(=O)Nc2ccccc21 [Compound 9g, 2-(2-(Benzo[d]thiazol-2-yl)-6-methoxyphenoxy)-N′-(2-oxoindolin-3-ylidene)acetohydrazide] | – (GI% < 5%) | 28.45% | 7.95% | – (GI% < 5%) | 8.22% | 10.62% | 27.14% | 44.41% | – (GI% < 5%) | 10.97% | 18.49% | 34.75% | – (GI% < 5%) | – (GI% < 5%) | 14.78% | 35.85% | 41.81% | – (GI% < 5%) | 26.62% | 16.30% | Mean GI% [1]: 15.46%; GI% [22]: 18.32%; GI% [23]: 29.32%; GI% [24]: 25.83%; GI% [25]: 50.47%
2 | COc1cccc(-c2nc3ccccc3s2)c1OCC(=O)NN=C1C(=O)Nc2ccc([N+](=O)[O-])cc21 [Compound 9j, 2-(2-(Benzo[d]thiazol-2-yl)-6-methoxyphenoxy)-N′-(5-nitro-2-oxoindolin-3-ylidene)acetohydrazide] | – (GI% < 5%) | 6.51% | – (GI% < 5%) | – (GI% < 5%) | – (GI% < 5%) | – (GI% < 5%) | 5.61% | 18.80% | 6.78% | 6.00% | 11.67% | 28.19% | – (GI% < 5%) | – (GI% < 5%) | 11.44% | 9.05% | 25.41% | – (GI% < 5%) | 25.07% | – (GI% < 5%) | Mean GI% [1]: – (GI% < 5%); GI% [22]: 8.73%; GI% [23]: – (GI% < 5%); GI% [24]: – (GI% < 5%); GI% [25]: 6.21%
3 | COc1cccc(-c2nc3ccccc3s2)c1OCC(=O)NN=C1C(=O)Nc2ccc(C)cc21 [Compound 9h, 2-(2-(Benzo[d]thiazol-2-yl)-6-methoxyphenoxy)-N′-(5-methyl-2-oxoindolin-3-ylidene)acetohydrazide] | – (GI% < 5%) | 14.65% | 6.64% | – (GI% < 5%) | 14.52% | 12.04% | 20.46% | 46.62% | – (GI% < 5%) | – (GI% < 5%) | 9.88% | 36.68% | – (GI% < 5%) | 9.21% | 11.83% | 25.38% | 38.34% | – (GI% < 5%) | 37.74% | 9.01% | Mean GI% [1]: 9.27%; GI% [22]: 13.89%; GI% [23]: 41.06%; GI% [24]: 18.44%; GI% [25]: 26.10%
4 | O=C(COc1ccccc1-c1nc2ccccc2s1)NN=C1C(=O)Nc2ccccc21 [Compound 9a, 2-(2-(Benzo[d]thiazol-2-yl)phenoxy)-N′-(2-oxoindolin-3-ylidene)acetohydrazide] | – (GI% < 5%) | – (GI% < 5%) | – (GI% < 5%) | – (GI% < 5%) | – (GI% < 5%) | – (GI% < 5%) | 13.08% | 19.26% | 6.07% | – (GI% < 5%) | 7.64% | 22.46% | – (GI% < 5%) | – (GI% < 5%) | – (GI% < 5%) | 5.86% | 26.54% | – (GI% < 5%) | 25.11% | 5.85% | GI% [22]: – (GI% < 5%); GI% [23]: 12.02%; GI% [24]: – (GI% < 5%); GI% [25]: – (GI% < 5%)
5 | COc1ccc2c(c1)C(=NNC(=O)COc1c(OC)cccc1-c1nc3ccccc3s1)C(=O)N2 [Compound 9i, 2-(2-(Benzo[d]thiazol-2-yl)-6-methoxyphenoxy)-N′-(5-methoxy-2-oxoindolin-3-ylidene)acetohydrazide] | – (GI% < 5%) | 10.58% | – (GI% < 5%) | – (GI% < 5%) | 9.98% | 11.59% | 20.14% | 43.62% | – (GI% < 5%) | – (GI% < 5%) | 14.66% | 24.98% | – (GI% < 5%) | 5.62% | 6.51% | 15.41% | 30.29% | – (GI% < 5%) | 23.12% | – (GI% < 5%) | Mean GI% [1]: 6.32%; GI% [22]: 10.30%; GI% [23]: 37.57%; GI% [24]: 16.10%; GI% [25]: 30.66%
6 | COc1ccc2c(c1)C(=NNC(=O)COc1ccccc1-c1nc3ccccc3s1)C(=O)N2 [Compound 9c, 2-(2-(Benzo[d]thiazol-2-yl)phenoxy)-N′-(5-methoxy-2-oxoindolin-3-ylidene)acetohydrazide] | – (GI% < 5%) | 25.58% | – (GI% < 5%) | – (GI% < 5%) | – (GI% < 5%) | 19.15% | 32.22% | 43.83% | 6.75% | 19.69% | 12.43% | 28.09% | – (GI% < 5%) | 5.40% | 9.04% | 23.06% | 35.66% | – (GI% < 5%) | 18.66% | – (GI% < 5%) | Mean GI% [1]: 12.24%; GI% [22]: – (GI% < 5%); GI% [23]: 36.38%; GI% [24]: 18.71%; GI% [25]: 29.51%
